# Reference: patent US6809110B2 (Hoffmann-La Roche Inc., priority 2002, dated 2004)
smiles,measurement,value
"CCOC(Cc1ccc(OCCc2nc(-c3ccccc3)sc2C)c2ccsc12)C(=O)O (racemic) [Example 1, [rac]-2-Ethoxy-3-{4-[2-(5-methyl-2-phenyl-thiazol-4-yl)-ethoxy]-benzo[b]thiophen-7-yl}-propionic acid]",melting point,146 to 148 °C
"CCOC(Cc1ccc(OCCc2nc(-c3ccccc3)sc2C)c2ccccc12)C(=O)O (racemic) [Example 51, [rac]-2-Ethoxy-3-{4-[2-(5-methyl-2-phenyl-thiazol-4-yl)-ethoxy]-naphthalen-1-yl}-propionic acid]",melting point,140 to 143 °C
"CCOC(Cc1ccc(OCCc2nc(-c3ccc(C)cc3)sc2C)c2ccsc12)C(=O)O (racemic) [Example 72, [rac]-2-Ethoxy-3-{4-[2-(5-methyl-2-p-tolyl-thiazol-4-yl)-ethoxy]-benzo[b]thiophen-7-yl}-propionic acid]",melting point,126 to 127 °C
"CCOC(Cc1ccc(OCCc2nc(-c3ccc(C(C)(C)C)cc3)sc2C)c2ccccc12)C(=O)O (racemic) [Example 73, [rac]-3-(4-{2-[2-(4-tert-Butyl-phenyl)-5-methyl-thiazol-4-yl]-ethoxy}-naphthalen-1-yl)-2-ethoxy-propionic acid]",melting point,90 to 93 °C
"CCOC(Cc1ccc(OCCc2nc(-c3ccc(C(C)(C)C)cc3)sc2C)c2ccsc12)C(=O)O (racemic) [Example 74, [rac]-3-(4-{2-[2-(4-tert-Butyl-phenyl)-5-methyl-thiazol-4-yl]-ethoxy}-benzo[b]thiophen-7-yl)-2-ethoxy-propionic acid]",melting point,152 to 154 °C
"CCOC(Cc1ccc(OCCc2nc(-c3ccc(C(C)C)cc3)sc2C)c2ccsc12)C(=O)O (racemic) [Example 75, [rac]-2-Ethoxy-3-(4-{2-[2-(4-isopropyl-phenyl)-5-methyl-thiazol-4-yl]-ethoxy}-benzo[b]thiophen-7-yl)-propionic acid]",melting point,120 to 122 °C
"CCOC(Cc1ccc(OCCc2nc(-c3ccc(C(C)C)cc3)sc2C)c2ccccc12)C(=O)O (racemic) [Example 77, [rac]-2-Ethoxy-3-(4-{2-[2-(4-isopropyl-phenyl)-5-methyl-thiazol-4-yl]-ethoxy}-naphthalen-1-yl)-propionic acid]",melting point,111 to 113 °C
"CCOC(Cc1ccc(OCCc2nc(-c3ccc(C)cc3)sc2C)c2ccccc12)C(=O)O (racemic) [Example 78, [rac]-2-Ethoxy-3-{4-[2-(5-methyl-2-p-tolyl-thiazol-4-yl)-ethoxy]-naphthalen-1-yl}-propionic acid]",melting point,140 to 141 °C
"Cc1sc(-c2ccccc2)nc1CCOc1ccc(CC(OC(C)C)C(=O)O)c2sccc12 (racemic) [Example 79, [rac]-2-Isopropoxy-3-{4-[2-(5-methyl-2-phenyl-thiazol-4-yl)-ethoxy]-benzo[b]thiophen-7-yl}-propionic acid]",melting point,73 °C
"CCCOC(Cc1ccc(OCCc2nc(-c3ccccc3)sc2C)c2ccccc12)C(=O)O (racemic) [Example 80, [rac]-3-{4-[2-(5-Methyl-2-phenyl-thiazol-4-yl)-ethoxy]-naphthalen-1-yl}-2-propoxy-propionic acid]",melting point,95 to 99 °C
"COC(Cc1ccc(OCCc2nc(-c3ccc(C)cc3)sc2C)c2ccccc12)C(=O)O (racemic) [Example 81, [rac]-2-Methoxy-3-{4-[2-(5-methyl-2-p-tolyl-thiazol-4-yl)-ethoxy]-naphthalen-1-yl}-propionic acid]",melting point,155 to 156 °C
"CCCOC(Cc1ccc(OCCc2nc(-c3ccc(C)cc3)sc2C)c2ccccc12)C(=O)O (racemic) [Example 82, [rac]-3-{4-[2-(5-Methyl-2-p-tolyl-thiazol-4-yl)-ethoxy]-naphthalen-1-yl}-2-propoxy-propionic acid]",melting point,123 to 124 °C
"CCOC(Cc1ccc(OCCc2nc(-c3cc(OC)cc(OC)c3)sc2C)c2ccsc12)C(=O)O (racemic) [Example 83, [rac]-3-(4-{2-[2-(3,5-Dimethoxy-phenyl)-5-methyl-thiazol-4-yl]-ethoxy}-benzo[b]thiophen-7-yl)-2-ethoxy-propionic acid]",melting point,148 to 150 °C
"COc1cc(OC)cc(-c2nc(CCOc3ccc(CC(OC)C(=O)O)c4sccc34)c(C)s2)c1 (racemic) [Example 84, [rac]-3-(4-{2-[2-(3,5-Dimethoxy-phenyl)-5-methyl-thiazol-4-yl]-ethoxy}-benzo[b]thiophen-7-yl)-2-methoxy-propionic acid]",melting point,156 to 157 °C
"COc1cc(OC)cc(-c2nc(CCOc3ccc(CC(OC(C)C)C(=O)O)c4sccc34)c(C)s2)c1 (racemic) [Example 85, [rac]-3-(4-{2-[2-(3,5-Dimethoxy-phenyl)-5-methyl-thiazol-4-yl]-ethoxy}-benzo[b]thiophen-7-yl)-2-isopropoxy-propionic acid]",melting point,150 to 152 °C
"Cc1sc(-c2ccc(C(C)(C)C)cc2)nc1CCOc1ccc(CC(OC(C)C)C(=O)O)c2ccccc12 (racemic) [Example 86, [rac]-3-(4-{2-[2-(4-tert-Butyl-phenyl)-5-methyl-thiazol-4-yl]-ethoxy}-naphthalen-1-yl)-2-isopropoxy-propionic acid]",melting point,75 to 85 °C
"CCCOC(Cc1ccc(OCCc2nc(-c3ccc(C(C)(C)C)cc3)sc2C)c2ccsc12)C(=O)O (racemic) [Example 87, [rac]-3-(4-{2-[2-(4-tert-Butyl-phenyl)-5-methyl-thiazol-4-yl]-ethoxy}-benzo[b]thiophen-7-yl)-2-propoxy-propionic acid]",melting point,76 °C
"CCOC(Cc1ccc(OCCc2nc(-c3cc(OC)cc(OC)c3)sc2C)c2ccccc12)C(=O)O (racemic) [Example 88, [rac]-3-(4-{2-[2-(3,5-Dimethoxy-phenyl)-5-methyl-thiazol-4-yl]-ethoxy}-naphthalen-1-yl)-2-ethoxy-propionic acid]",melting point,133 to 135 °C
"COC(Cc1ccc(OCc2sc(-c3ccc(C(F)(F)F)cc3)nc2C)c2ccccc12)C(=O)O (racemic) [Example 136, [rac]-2-Methoxy-3-{4-[4-methyl-2-(4-trifluoromethyl-phenyl)-thiazol-5-ylmethoxy]-naphthalen-1-yl}-propionic acid]",melting point,190 to 192 °C
"CCOC(Cc1ccc(OCc2sc(-c3ccc(C(F)(F)F)cc3)nc2C)c2ccccc12)C(=O)O (racemic) [Example 137, [rac]-2-Ethoxy-3-{4-[4-methyl-2-(4-trifluoromethyl-phenyl)-thiazol-5-ylmethoxy]-naphthalen-1-yl}-propionic acid]",melting point,186 to 188 °C
"COC(Cc1ccc(OCc2sc(-c3ccc(C(F)(F)F)cc3)nc2C)c2ccsc12)C(=O)O (racemic) [Example 138, [rac]-2-Methoxy-3-{4-[4-methyl-2-(4-trifluoromethyl-phenyl)-thiazol-5-ylmethoxy]-benzo[b]thiophen-7-yl}-propionic acid]",melting point,140 to 142 °C (dec.)
"CCOC(Cc1ccc(OCc2sc(-c3ccc(C(F)(F)F)cc3)nc2C)c2ccsc12)C(=O)O (racemic) [Example 139, [rac]-2-Ethoxy-3-{4-[4-methyl-2-(4-trifluoromethyl-phenyl)-thiazol-5-ylmethoxy]-benzo[b]thiophen-7-yl}-propionic acid]",melting point,178 to 179 °C
